Experimental findings from patent US9328122B2, “7-substituted Hanfangichin B derivative, and preparation method and use thereof” (HANGZHOU BENSHENG PHARMACEUTICAL CO., LTD., priority 2012, dated 2016) are described below.

Each structure is given as a SMILES string. Converted amounts (≈) assume the structure as drawn.

In one experiment the test system is K562/ADR (K562adr, drug-resistant chronic myeloid leukemia) cells. Description: MTT cell growth inhibition, leukemia cells. As to conditions: Homo sapiens; K562/ADR, 72 h, MTT; read-out: IC50. The experiment is classed as cell-based. The procedure, abridged:
(§1)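 MTT read-out of viable cells after 72 h compound exposure at 37° C., 5% CO2; 6000 cells/well in RPMI-1640 + 10% FBS, dosed one day after seeding over a range of concentrations.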
With `C=C(C)COc1c(OC)cc2c3c1Oc1cc4c(cc1OC)CCN(C)[C@H]4Cc1ccc(cc1)Oc1cc(ccc1OC)C[C@@H]3N(C)CC2` [BS-FC-221], the IC50 (as a rule, the concentration that inhibits the measured activity by half) was determined as 0.33 µg/mL (≈ 0.498 µM).

Staying with this experiment, now noted: Homo sapiens; K562/ADR, 72 h, MTT; read-out: IC90.
For `C=C(C)COc1c(OC)cc2c3c1Oc1cc4c(cc1OC)CCN(C)[C@H]4Cc1ccc(cc1)Oc1cc(ccc1OC)C[C@@H]3N(C)CC2` [BS-FC-221], the concentration for an effect of 90% (IC90) (in general, the concentration at which the effect reaches the 90% level) came to 1.31 µg/mL (≈ 1.98 µM).

The next experiment relates to NB4 (acute promyelocytic leukemia) cells. Description: MTT cell growth inhibition, leukemia cells. Type of experiment: cell-based. To be noted: Homo sapiens; NB4, 72 h, MTT; read-out: IC50. The procedure, abridged:
as §1
`C=C(C)COc1c(OC)cc2c3c1Oc1cc4c(cc1OC)CCN(C)[C@H]4Cc1ccc(cc1)Oc1cc(ccc1OC)C[C@@H]3N(C)CC2` [BS-FC-221]: the IC50 amounted to 0.57 µg/mL (≈ 0.86 µM).

The experiment is the same for the next values; noted with them: Homo sapiens; NB4, 72 h, MTT; read-out: IC90.
On to `C=C(C)COc1c(OC)cc2c3c1Oc1cc4c(cc1OC)CCN(C)[C@H]4Cc1ccc(cc1)Oc1cc(ccc1OC)C[C@@H]3N(C)CC2` [BS-FC-221], for which the IC90 was 1.88 µg/mL (≈ 2.84 µM).

For the next experiment, the system named is Becap-37 (human breast cancer) cells. Description: MTT cell growth inhibition, solid tumor cells. As to conditions: Homo sapiens; Becap-37, 72 h, MTT; read-out: IC50. The experiment is classed as cell-based. The procedure, abridged:
(§2)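 Human tumor cells seeded at 6000 per well grow 24 h in serum-supplemented (10% FBS) high-glucose DMEM. A 72 h incubation with graded compound doses at 37 °C follows, and MTT reports viable cell number.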
As for `C=C(C)COc1c(OC)cc2c3c1Oc1cc4c(cc1OC)CCN(C)[C@H]4Cc1ccc(cc1)Oc1cc(ccc1OC)C[C@@H]3N(C)CC2` [BS-FC-221], the IC50 was determined as 1.91 µg/mL (≈ 2.88 µM).

Still in this experiment, the particulars now being: Homo sapiens; Becap-37, 72 h, MTT; read-out: IC90.
`C=C(C)COc1c(OC)cc2c3c1Oc1cc4c(cc1OC)CCN(C)[C@H]4Cc1ccc(cc1)Oc1cc(ccc1OC)C[C@@H]3N(C)CC2` [BS-FC-221]: the concentration for an effect of 90% (IC90) came to 3.86 µg/mL (≈ 5.82 µM).

A further experiment deals with MG-63 (osteosarcoma) cells. The experiment is described as follows: MTT cell growth inhibition, solid tumor cells. The experiment is classed as cell-based. To be noted: Homo sapiens; MG-63, 72 h, MTT; read-out: IC50. The procedure, abridged: as §2
As to `C=C(C)COc1c(OC)cc2c3c1Oc1cc4c(cc1OC)CCN(C)[C@H]4Cc1ccc(cc1)Oc1cc(ccc1OC)C[C@@H]3N(C)CC2` [BS-FC-221], the IC50 was found to be 0.8 µg/mL (≈ 1.21 µM).

Still in this experiment, the particulars now being: Homo sapiens; MG-63, 72 h, MTT; read-out: IC90.
As to `C=C(C)COc1c(OC)cc2c3c1Oc1cc4c(cc1OC)CCN(C)[C@H]4Cc1ccc(cc1)Oc1cc(ccc1OC)C[C@@H]3N(C)CC2` [BS-FC-221], the IC90 stood at 1.9 µg/mL (≈ 2.87 µM).

The next experiment relates to Hep G2 (human liver cancer) cells. The experiment is described as follows: MTT cell growth inhibition, solid tumor cells. Type of experiment: cell-based. To be noted: Homo sapiens, HepG2; Hep G2, 72 h, MTT; read-out: IC50. The procedure, abridged:
as §2
In the case of `C=C(C)COc1c(OC)cc2c3c1Oc1cc4c(cc1OC)CCN(C)[C@H]4Cc1ccc(cc1)Oc1cc(ccc1OC)C[C@@H]3N(C)CC2` [BS-FC-221], the half-inhibitory concentration (IC50) turned out to be 1.48 µg/mL (≈ 2.23 µM).

Still in this experiment, the particulars now being: Homo sapiens, HepG2; Hep G2, 72 h, MTT; read-out: IC90.
For the compound `C=C(C)COc1c(OC)cc2c3c1Oc1cc4c(cc1OC)CCN(C)[C@H]4Cc1ccc(cc1)Oc1cc(ccc1OC)C[C@@H]3N(C)CC2` [BS-FC-221], the 90% effect concentration (IC90) was found to be 4.37 µg/mL (≈ 6.59 µM).

The subject of another experiment is U87-MG (malignant glioma) cells. The experiment is described as follows: MTT cell growth inhibition, solid tumor cells. Type of experiment: cell-based. To be noted: Homo sapiens, U-87 MG; U87-MG, 72 h, MTT; read-out: IC50. The procedure, abridged:
as §2
Regarding `C=C(C)COc1c(OC)cc2c3c1Oc1cc4c(cc1OC)CCN(C)[C@H]4Cc1ccc(cc1)Oc1cc(ccc1OC)C[C@@H]3N(C)CC2` [BS-FC-221], the IC50 worked out at 1.13 µg/mL (≈ 1.7 µM).

Staying with this experiment, now noted: Homo sapiens, U-87 MG; U87-MG, 72 h, MTT; read-out: IC90.
With `C=C(C)COc1c(OC)cc2c3c1Oc1cc4c(cc1OC)CCN(C)[C@H]4Cc1ccc(cc1)Oc1cc(ccc1OC)C[C@@H]3N(C)CC2` [BS-FC-221], the IC90 was 4.5 µg/mL (≈ 6.79 µM).

The subject of a further experiment is Hela (human cervical cancer) cells. Description: MTT cell growth inhibition, solid tumor cells. Type of experiment: cell-based. To be noted: Homo sapiens; Hela, 72 h, MTT; read-out: IC50. The procedure, abridged: as §2
As to `C=C(C)COc1c(OC)cc2c3c1Oc1cc4c(cc1OC)CCN(C)[C@H]4Cc1ccc(cc1)Oc1cc(ccc1OC)C[C@@H]3N(C)CC2` [BS-FC-221], the IC50 was determined as 0.71 µg/mL (≈ 1.07 µM).

The experiment is the same for the next values; noted with them: Homo sapiens; Hela, 72 h, MTT; read-out: IC90.
For the compound `C=C(C)COc1c(OC)cc2c3c1Oc1cc4c(cc1OC)CCN(C)[C@H]4Cc1ccc(cc1)Oc1cc(ccc1OC)C[C@@H]3N(C)CC2` [BS-FC-221], the concentration for an effect of 90% (IC90) amounted to 1.9 µg/mL (≈ 2.87 µM).

The test system of a further experiment is RKO (human colon adenocarcinoma) cells. Description: MTT cell growth inhibition, solid tumor cells. Type of experiment: cell-based. To be noted: Homo sapiens; RKO, 72 h, MTT; read-out: IC50. The procedure, abridged:
as §2
For `C=C(C)COc1c(OC)cc2c3c1Oc1cc4c(cc1OC)CCN(C)[C@H]4Cc1ccc(cc1)Oc1cc(ccc1OC)C[C@@H]3N(C)CC2` [BS-FC-221], the IC50 was 1.37 µg/mL (≈ 2.07 µM).

Staying with this experiment, now noted: Homo sapiens; RKO, 72 h, MTT; read-out: IC90.
Regarding `C=C(C)COc1c(OC)cc2c3c1Oc1cc4c(cc1OC)CCN(C)[C@H]4Cc1ccc(cc1)Oc1cc(ccc1OC)C[C@@H]3N(C)CC2` [BS-FC-221], the IC90 worked out at 2.76 µg/mL (≈ 4.16 µM).

Another experiment deals with tumor. Description: Antitumor activity compared with fangchinoline, overall statement. The experiment is classed as cell-based. To be noted: tumor type not specified.
Regarding `C=C(C)COc1c(OC)cc2c3c1Oc1cc4c(cc1OC)CCN(C)[C@H]4Cc1ccc(cc1)Oc1cc(ccc1OC)C[C@@H]3N(C)CC2` [BS-FC-221], the “antitumor activity compared with that of fangchinoline” value is “significantly superior”.
